Measured values: patent US4266034A, “Method for producing microbial cells and use thereof to produce oxidation products” (priority 1979, dated 1981)
Like-named read-outs stand apart in the source and are kept apart here.

Legend:
[1] = test system: secondary alcohol dehydrogenase; assay: Purified yeast-derived secondary alcohol dehydrogenase activity; type: biochemical, Pichia sp. NRRL Y-11,328
Experimental: Large scale cultures of Pichia sp. NRRL Y-11,328 were grown with aeration at 30° C. in a 14-liter New Brunswick f fermentor in a mineral salt medium containing methanol (0.4%, v/v) as the sole carbon source. The cells (200 g., wet weight) were suspended in […] sodium phosphate buffer, pH 7.0, containing 1 mM dithiothreitol (buffer A), and crude extracts were prepared as described previously. To the crude extracts, 18 ml. of protamine sulfate solution [2% solution in 0.1 M tris (hydroxymethyl) aminomethane (tris) base] was added dropwise with continuous stirring. After standing for 30 min., the extracts were centrifuged at 20,000×g. for 60 min. The supernatant solution was fractionated with solid ammonium sulfate. Extracts were brought to 50% of saturation with respect to ammonium sulfate by addition of 313 g. of the salt per liter of extract. Precipitated proteins was removed by centrifugation, and 137 g. of ammonium sulfate was added per liter of the supernatant liquid to bring it to 70% of saturation. Material precipitating between 50 and 70% of saturation was collected by centrifugation and dissolved in buffer A. This preparation was dialyzed overnight against buffer A, and the dialyzed material was applied to a DEAE-cellulose column (5×40 cm) that had been equilibrated with buffer A. The sample was washed with 200 ml. of buffer A and eluted with 2 liters of buffer A that contained NaCl in a linear gradient running from a concentration of 0 to 0.5 M. Fractions of 15 ml. were collected. Fractions containing secondary alcohol dehydrogenase activity were pooled and were termed DEAE-cellulose eluate. The DEAE-cellulose eluate was concentrated by ammonium sulfate fractionation.
Secondary alcohol dehydrogenase activity was measured spectrophotometrically at 340 nm with a NAD^+ as an electron acceptor. The reaction mixture, in a total 3.0 ml., contained 50 mM phosphate buffer, pH 8.0, 5 μmoles NAD^+, crude extracts, and substrate. […] Protein concentration was determined by the method of Lowry et al.
The substrate specificity of the purified secondary alcohol dehydrogenase was examined spectrophotometrically.

[2] = test system: P(40) particulate fraction of Methylosinus sp. (CRL-15, NRRL B-11,202); assay: Epoxidation of propylene and hydroxylation of methane by P(40) particulate fraction; type: biochemical; conditions: for Rate of Production Formation: substrate oxidized by P(40) fraction, 30° C.; for Methane-Oxidizing Activity / Propylene-Oxidizing Activity: metal 10^-3 M; for Methane-Oxidizing Activity: control 4.0; for Propylene-Oxidizing Activity: control […]; for Propylene Oxide Produced: substrate competition, P(40) fraction
[3] = test system: secondary alcohol dehydrogenase; assay: Cofactor requirement of cell-free soluble extracts oxidizing 2-butanol; type: biochemical; conditions: cell-free systems
Experimental: Catalytic activity was also assayed by fluorescence spectrophotometry.

[4] = test system: secondary alcohol dehydrogenase (SADH); assay: Purified secondary alcohol dehydrogenase (SADH) activity; type: biochemical, Pseudomonas sp. ATCC 21439; conditions: each inhibitor 1 mM, measured spectrofluorometrically
Experimental: Secondary alcohol dehydrogenase (SADH) from an obligate methanol utilizer, Pseudomonas sp. ATCC 21439 was purified as follows. […] 0.05 M sodium phosphate buffer, pH 7.0 with 0.5 mM dithiothretol (buffer A) and were disrupted sonically (5×1 min.). The crude extract was separated by centrifugation. The crude extract was heat-treated at 50° C. in a water bath for 10 minutes. The resulting precipitate was removed by centrifugation. To the supernatant solution, 25 ml of protamine sulfate solution (2% solution in 0.1 M Tris base) was added dropwise with continuous stirring. After standing for 30 minutes, the extract was centrifuged. The supernatant solution was fractionated with solid ammonium sulfate. The material precipitating between 30 and 60% saturation was collected and was dialized overnight against buffer A. The The dialized material was applied to a DEAE-cellulose column (3 cm by 35 cm) that had been equilibrated with buffer A. The secondary alcohol dehydrogenase activity was eluted in the void volume. This DEAE-cellulose eluate was concentrated by ammonium sulfate fractionation. Material precipitating between 30 and 50% ammonium sulfate saturation was collected by centrifugation and dialyzed overnight against A. This fraction was further washed and filtered through an Amicon unit with XM 50 membrane. The concentrated fraction (6 ml) inside the Amicon unit was applied to an Affi-Gel Blue column (0.8 cm×18 cm) which had been equilibrated with buffer A for affinity chromatography. The column was washed overnight with buffer A (0.18 ml./min.) and then was eluted with buffer A containing 5 mM NAD. Each 1 ml. fraction was collected.
The purified secondary alcohol dehydrogenase enzyme (SADH) may be used directly for converting C3 -C6 secondary alcohols to the corresponding methyl ketones by the procedures described above; however, a source of NAD^+ must be added to the reaction medium. One can determine the NAD-linked secondary alcohol dehydrogenase activity with a fluorescence spectrophotometer (Perkin Elmer, Model MPF 44A) by following the formation of reduced NAD (Ex 340 nm, Em 460 nm). The assay system (3 ml.) will typically contain: sodium phosphate buffer pH 7.0, 150 μmol; NAD 1.0 μmol; a given amount of enzyme preparation; and 20 μmol secondary alcohol. The reaction is started by the addition of secondary alcohol. One unit of SADH enzyme activity represents the reduction of one nmole NAD per minute.
The effect of metal-chelating agents and thioreagents on the activity of the purified SADH enzyme were studied. […] The possibility of ethanol or n-propanol as an inhibitor was studied.

[5] = test system: cell-free particulate fractions derived from the methylotrophic microorganisms; assay: Inhibition of conversion of C3-C6 n-alkanes to sec. alcohols by cell-free particulate fractions; type: biochemical; conditions: oxygen and NADH
Description: The conditions for preparing the cell suspensions or the cell-free particulate fractions from methane-grown methylotroph microorganisms is the same as described above. […] Tables XXV and XXVI show the conversion of C3 -C6 n-alkanes to the corresponding secondary alcohols using cell suspensions and cell-free particulate fractions, respectively, of methane-grown methylotroph microorganisms.

[6] = examined spectrophotometrically
[7] = purified enzyme, substrate 5.7 (isopropanol) or 6.0 (2-butanol) μmoles

CC(O)CO (stereo not drawn) [1,2-propandiol]
oxidation by the purified enzyme (substrate specificity) [1, 6]: not oxidized

C=CCC [1-Butene]
Rate of Production Formation [2]: 2.18 μ moles/hr/mg of protein

C=CCCC [1-Pentene]
Rate of Production Formation [2]: 0 μ moles/hr/mg of protein

O=C1C(Cl)=CC(=Nc2ccc(O)cc2)C=C1Cl [2,6-dichlorophenol indophenol]
effectiveness as cofactor in place of NAD [3]: not effective | ability to act as electron carrier in place of NAD^+ ([1]; purified enzyme): could not act as electron carrier

CCCCCC(C)O (stereo not drawn) [2-Heptanol]
oxidation by the purified enzyme (substrate specificity) [1, 6]: not oxidized

CCC(C)O (stereo not drawn) [2-butanol]
oxidation by the purified enzyme (substrate specificity) [1]: catalyzed the oxidation

CCCCC(C)O (stereo not drawn) [2-hexanol]
oxidation by the purified enzyme (substrate specificity) [1, 6]: catalyzed the oxidation

CCCCCCC(C)O (stereo not drawn) [2-octanol]
oxidation by the purified enzyme (substrate specificity) [1, 6]: not oxidized

CCCC(C)O (stereo not drawn) [2-pentanol]
oxidation by the purified enzyme (substrate specificity) [1, 6]: catalyzed the oxidation

CC(C)O [2-propanol]
oxidation by the purified enzyme (substrate specificity) [1, 6]: catalyzed the oxidation | NAD^+ Reduced [1, 7]: 5.4 µmol | Product Formed [1, 7]: 5.5 µmol

O=C(O)c1cc(SSc2ccc([N+](=O)[O-])c(C(=O)O)c2)ccc1[N+](=O)[O-] [5,5'-dithiobis(2-nitrobenzoic acid)]
% inhibition of SADH activity [4]: 100% | % inhibition of SADH activity ([4]; listed as 5,5'-dithiobis (2-nitrobenzoic acid)): inhibited

Oc1cccc2cccnc12 [8-Hydroxyquinoline]
inhibition of the conversion of n-alkanes to sec. alcohols [5]: inhibited

C=CC=C [Butadiene]
Rate of Production Formation [2]: 0.63 μ moles/hr/mg of protein

[Co+2] [Co^++]
% inhibition of SADH activity [4]: 0%

O=S(=O)([O-])[O-].[Cu+2] [Cupric Sulfate]
Methane-Oxidizing Activity [2]: 7.1 μmoles/hr/mg protein | Propylene-Oxidizing Activity [2]: 9.0 μmoles/hr/mg protein | inhibition of secondary alcohol dehydrogenase activity ([1]; purified enzyme): inhibited

[Cl][Cu] [Cuprous Chloride]
Methane-Oxidizing Activity [2]: 7.2 μmoles/hr/mg protein | Propylene-Oxidizing Activity [2]: 9.2 μmoles/hr/mg protein

CC [Ethane]
Rate of Production Formation [2]: 3.2 μ moles/hr/mg of protein

C=C [Ethylene]
Rate of Production Formation [2]: 1.27 μ moles/hr/mg of protein

[Cl][Fe]([Cl])[Cl] [Ferric Chloride]
Methane-Oxidizing Activity [2]: 4.8 μmoles/hr/mg protein | Propylene-Oxidizing Activity [2]: 5.8 μmoles/hr/mg protein

c1c[nH]cn1 [Imidazole]
inhibition of secondary alcohol dehydrogenase activity ([1]; purified enzyme): strongly inhibited

C [Methane]
Propylene Oxide Produced [2]: 0 μmoles/hr/mg. protein | Rate of Production Formation [2]: 4.8 μ moles/hr/mg of protein

[Mg+2] [Mg^++]
% inhibition of SADH activity [4]: 0%

[Mn+2] [Mn^++]
% inhibition of SADH activity [4]: 0%

CCN1C(=O)C=CC1=O [N-ethylmalemide]
% inhibition of SADH activity [4]: 6% | % inhibition of SADH activity ([4]; listed as N-ethylmaleimide): not inhibited

NC(=O)C1=CN([C@@H]2O[C@H](COP(=O)(O)OP(=O)(O)OC[C@H]3O[C@@H](n4cnc5c(N)ncnc54)[C@H](OP(=O)(O)O)[C@@H]3O)[C@@H](O)[C@H]2O)C=CC1 [NAD(P)H]
effectiveness as cofactor in place of NAD [3]: not effective

NC(=O)c1ccc[n+]([C@@H]2O[C@H](COP(=O)([O-])OP(=O)(O)OC[C@H]3O[C@@H](n4cnc5c(N)ncnc54)[C@H](OP(=O)(O)O)[C@@H]3O)[C@@H](O)[C@H]2O)c1 [NADP]
effectiveness as cofactor in place of NAD [3]: not effective | ability to act as electron carrier in place of NAD^+ ([1]; purified enzyme): could not act as electron carrier

C=CC [Propylene]
Propylene Oxide Produced [2]: 4.3 μmoles/hr/mg. protein | Rate of Production Formation [2]: 4.1 μ moles/hr/mg of protein | inhibition of the conversion of n-alkanes to sec. alcohols [5]: inhibited

[N-]=[N+]=[N-] [Sodium azide]
% inhibition of SADH activity [4]: 10%

NNC(N)=S [Thiosemicarbazide]
inhibition of the conversion of n-alkanes to sec. alcohols [5]: inhibited

[Zn+2] [Zn^++]
% inhibition of SADH activity [4]: 0%

CCCCO [butan-1-ol]
oxidation by the purified enzyme (substrate specificity) [1]: not oxidized

CCC(O)CO (stereo not drawn) [butane 1,2-diol]
oxidation by the purified enzyme (substrate specificity) [1, 6]: not oxidized

CC(O)CCO (stereo not drawn) [butane 1,3-diol]
oxidation by the purified enzyme (substrate specificity) [1, 6]: not oxidized

[Cu+2] [cupric]
% inhibition of SADH activity [4]: 25%

CCO [ethanol]
oxidation by the purified enzyme (substrate specificity) [1]: not oxidized

[Fe+3] [ferric]
% inhibition of SADH activity [4]: 35%

[Fe+2] [ferrous]
% inhibition of SADH activity [4]: 50%

Cc1cc2nc3c(=O)[nH]c(=O)nc-3n(C[C@H](O)[C@H](O)[C@H](O)COP(=O)(O)OP(=O)(O)OC[C@H]3O[C@@H](n4cnc5c(N)ncnc54)[C@H](O)[C@@H]3O)c2cc1C [flavin adenine dinucleotide]
effectiveness as cofactor in place of NAD [3]: not effective | ability to act as electron carrier in place of NAD^+ ([1]; purified enzyme): could not act as electron carrier

N#C[S][Hg][S]C#N [mercuric thiocyanate]
inhibition of secondary alcohol dehydrogenase activity ([1]; purified enzyme): inhibited

CO [methanol]
oxidation by the purified enzyme (substrate specificity) [1, 6]: not oxidized

[Ni+2] [nickel]
% inhibition of SADH activity [4]: 20%

O=C(O)c1cc[c]([Hg+])cc1.[OH-] [p-hydroxymercuribenzoate]
inhibition of secondary alcohol dehydrogenase activity ([1]; purified enzyme): strongly inhibited | % inhibition of SADH activity [4]: 100%

CCCCCO [pentan-1-ol]
oxidation by the purified enzyme (substrate specificity) [1, 6]: not oxidized

CCCO [propan-1-ol]
oxidation by the purified enzyme (substrate specificity) [1]: not oxidized

O=[N+]([O-])[O-].[Ag+] [silver nitrate]
inhibition of secondary alcohol dehydrogenase activity ([1]; purified enzyme): inhibited

Ferrous Sulfate
Methane-Oxidizing Activity [2]: 4.8 μmoles/hr/mg protein | Propylene-Oxidizing Activity [2]: 5.9 μmoles/hr/mg protein

cytochrome c
ability to act as electron carrier in place of NAD^+ ([1]; purified enzyme): could not act as electron carrier
